Some test systems named below: BT-549 breast; M14 melanoma; DU-145 prostate; MCF7 breast; IGROV1 ovarian; SK-MEL-2 melanoma; UO-31 renal; SF-539 CNS; HCC-2998 colon; SR leukemia.
Assay in all cases: inhibition of tumour cell growth, NCI panel, 48 h

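Briefly, cells in 96-well plates were exposed to five compound concentrations for 48 h, and endpoints were estimated by linear interpolation. GI50 = concentration required for 50% inhibition of growth. The concentration for full growth arrest is given as TGI.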

Consider `NCCCOc1cc2ccccc2cc1C(=O)NCCCOc1cc2ccccc2cc1C(=O)Nc1ccc(Cl)cc1O`, for which the GI50 with BT-549 breast was 1.85 µM; with M14 melanoma, 0.881 µM; with DU-145 prostate, 0.72 µM; in the test with MCF7 breast, 0.183 µM; in the test on IGROV1 ovarian it was 1.9 µM; with SK-MEL-2 melanoma it was 1.21 µM. The GI50 is 0.355 µM with UO-31 renal, 1.05 µM in the test on SF-539 CNS, 0.992 µM with HCC-2998 colon and 0.194 µM in the test on SR leukemia. For the same compound, the TGI in the test on BT-549 breast was found to be 3.6 µM; with M14 melanoma it was 2.55 µM; in the test with DU-145 prostate, 2.17 µM; in the test with MCF7 breast it was 0.349 µM; with IGROV1 ovarian, 4.42 µM; with SK-MEL-2 melanoma, 2.91 µM. Also, the TGI is 1.78 µM in the test with UO-31 renal, 2.57 µM in the test on SF-539 CNS, 2.48 µM with HCC-2998 colon and 0.871 µM in the test on SR leukemia.

Turning to `Nc1c(C(=O)Nc2ccccc2Cl)sc2nc3c(cc12)C(=O)CCC3`, the GI50 in the test with BT-549 breast is over 100 µM; with M14 melanoma, 1.06 µM; in the test on DU-145 prostate it was 10.3 µM; in the test on MCF7 breast, 0.494 µM; in the test with IGROV1 ovarian it was over 100 µM; with SK-MEL-2 melanoma, 1.09 µM. The GI50 in the test on UO-31 renal is over 100 µM; with SF-539 CNS, 1.15 µM; in the test on HCC-2998 colon it was 21.2 µM. The TGI with BT-549 breast, in the test with M14 melanoma, with DU-145 prostate, with MCF7 breast, with IGROV1 ovarian and with SK-MEL-2 melanoma was over 100 µM throughout. Also, the TGI with UO-31 renal, in the test with SF-539 CNS, in the test with HCC-2998 colon and with SR leukemia was over 100 µM throughout.

With `Oc1ccc(N=Nc2nccs2)c(O)c1`, the GI50 was 16.1 µM in the test on BT-549 breast; 11 µM in the test with M14 melanoma; 5.23 µM in the test with DU-145 prostate; 3.06 µM in the test with MCF7 breast; 4.14 µM in the test on IGROV1 ovarian; 17.1 µM with SK-MEL-2 melanoma. Also, the GI50 is 3.51 µM with UO-31 renal, 6.66 µM with SF-539 CNS, 3.92 µM in the test with HCC-2998 colon and 2.12 µM in the test with SR leukemia. The TGI came to 57.6 µM in the test on BT-549 breast; 48.4 µM in the test with M14 melanoma; 17.1 µM in the test with DU-145 prostate; 15.1 µM in the test on MCF7 breast; 15.2 µM in the test on IGROV1 ovarian; 60.3 µM in the test with SK-MEL-2 melanoma. Further, the TGI is 21.8 µM with UO-31 renal, 28.9 µM in the test on SF-539 CNS, 15 µM in the test on HCC-2998 colon and 9.8 µM with SR leukemia.

With `NC(N)=N/N=C(\N=Nc1ccccc1)c1ccc(Cl)cc1`, the GI50 in the test with BT-549 breast was 4.86 µM; in the test with M14 melanoma, 1.51 µM; with DU-145 prostate, 7.38 µM; in the test on MCF7 breast it was 2.43 µM; in the test with IGROV1 ovarian, 7.32 µM; in the test with SK-MEL-2 melanoma, 3.79 µM. Besides, the GI50 is 2.29 µM in the test on UO-31 renal, 2.98 µM with SF-539 CNS, 2.14 µM in the test on HCC-2998 colon and 1.93 µM in the test with SR leukemia. Also, the TGI in the test on BT-549 breast is 19.2 µM; with M14 melanoma, 4.39 µM; in the test with DU-145 prostate it was 21.3 µM; in the test with MCF7 breast, 14.2 µM; with IGROV1 ovarian, 23 µM; in the test on SK-MEL-2 melanoma it was 13.1 µM. The TGI in the test with UO-31 renal is 6.34 µM; in the test with SF-539 CNS, 8.1 µM; in the test on HCC-2998 colon, 4.68 µM; in the test with SR leukemia, 4.72 µM.

Take `COc1ccc(-c2nn(-c3cccc(Cl)c3)cc2-c2nc(N)[nH]c(=O)c2C#N)cc1`: the GI50 was 3.54 µM with BT-549 breast; 3.25 µM in the test on M14 melanoma; 17.9 µM with DU-145 prostate; 3.54 µM with MCF7 breast; 3.01 µM in the test on IGROV1 ovarian; 3.94 µM with SK-MEL-2 melanoma. The GI50 in the test with UO-31 renal is 2.94 µM; in the test with SF-539 CNS, 6.59 µM; with HCC-2998 colon it was 5.87 µM; in the test on SR leukemia, 3.73 µM. Further, the TGI stood at 22.4 µM in the test with BT-549 breast; 34 µM with M14 melanoma; 70.1 µM in the test with DU-145 prostate; 28.5 µM in the test on MCF7 breast; 18.1 µM in the test on IGROV1 ovarian; 15.8 µM in the test with SK-MEL-2 melanoma. Further, the TGI in the test on UO-31 renal was 47.8 µM; in the test on SF-539 CNS, 32.2 µM; in the test with HCC-2998 colon it was 24.9 µM; with SR leukemia, 21.2 µM.

On to `Cc1ccc2occ/c(=N\Nc3ccccc3)c2c1`, for which the TGI in the test on BT-549 breast, in the test with M14 melanoma, in the test on DU-145 prostate, in the test on MCF7 breast, in the test with IGROV1 ovarian and with SK-MEL-2 melanoma was over 100 µM each time. The TGI in the test with UO-31 renal, with SF-539 CNS, in the test with HCC-2998 colon and with SR leukemia was over 100 µM each time.

With `CC1(C)N=C(N)N=C(N)N1c1cccc(OCCOc2cccc([N+](=O)[O-])c2)c1`, the GI50 was 7.18 µM in the test with BT-549 breast; 14.4 µM with M14 melanoma; 4.38 µM in the test on DU-145 prostate; 2.23 µM in the test with MCF7 breast; 0.565 µM with IGROV1 ovarian; 15.2 µM with SK-MEL-2 melanoma. Also, the GI50 was over 100 µM in the test with UO-31 renal, 3.41 µM in the test on SF-539 CNS, 2.81 µM in the test on HCC-2998 colon and 0.543 µM in the test with SR leukemia. Also, the TGI in the test on BT-549 breast, in the test on M14 melanoma, with DU-145 prostate, in the test with MCF7 breast, in the test on IGROV1 ovarian and in the test on SK-MEL-2 melanoma was over 100 µM each time. For the same compound, the TGI in the test on UO-31 renal, with SF-539 CNS, in the test on HCC-2998 colon and with SR leukemia was over 100 µM each time.

Turning to `C=C(C)[C@@H]1CC[C@]2(C)[C@H](CC[C@@H]3[C@@H]([C@@](C)(O)CCC=C(C)C)CC[C@]32C)[C@@]1(C)CCC(=O)O`, the GI50 is 16.8 µM with BT-549 breast; 16.4 µM with M14 melanoma; 16.7 µM in the test with DU-145 prostate; 19.7 µM in the test with MCF7 breast; 18.7 µM in the test with IGROV1 ovarian; 17.6 µM in the test on SK-MEL-2 melanoma. The GI50 in the test on UO-31 renal was 15.7 µM; in the test on SF-539 CNS, 16 µM; in the test on HCC-2998 colon, 21.2 µM; with SR leukemia it was 16.5 µM. In addition, the TGI in the test on BT-549 breast was found to be 35.8 µM; with M14 melanoma, 36.1 µM; in the test on DU-145 prostate, 32.4 µM; in the test with MCF7 breast it was 49.3 µM; in the test with IGROV1 ovarian it was 38.4 µM; with SK-MEL-2 melanoma it was 39 µM. In addition, the TGI in the test with UO-31 renal amounted to 29.4 µM; in the test with SF-539 CNS it was 29.9 µM; in the test with HCC-2998 colon, 37.8 µM; in the test on SR leukemia it was 44.7 µM.

The values are drawn from PubChem BioAssay (NCI).
